This note sets out measurements from patent US11673889B2, “Substituted imidazo[4,5-c][1,8]naphthyridines as phosphodiesterase inhibitors” (Nanjing Zhengxiang Pharmaceuticals Co., Ltd., priority 2019, dated 2023).

Data set [1] concerns the target T1, human soluble ENPP1 (Homo sapiens, UniProt P22413).
T1 construct: 20 ng of human soluble ENPP1
T1 sequence (P22413 103-925 limits assumed): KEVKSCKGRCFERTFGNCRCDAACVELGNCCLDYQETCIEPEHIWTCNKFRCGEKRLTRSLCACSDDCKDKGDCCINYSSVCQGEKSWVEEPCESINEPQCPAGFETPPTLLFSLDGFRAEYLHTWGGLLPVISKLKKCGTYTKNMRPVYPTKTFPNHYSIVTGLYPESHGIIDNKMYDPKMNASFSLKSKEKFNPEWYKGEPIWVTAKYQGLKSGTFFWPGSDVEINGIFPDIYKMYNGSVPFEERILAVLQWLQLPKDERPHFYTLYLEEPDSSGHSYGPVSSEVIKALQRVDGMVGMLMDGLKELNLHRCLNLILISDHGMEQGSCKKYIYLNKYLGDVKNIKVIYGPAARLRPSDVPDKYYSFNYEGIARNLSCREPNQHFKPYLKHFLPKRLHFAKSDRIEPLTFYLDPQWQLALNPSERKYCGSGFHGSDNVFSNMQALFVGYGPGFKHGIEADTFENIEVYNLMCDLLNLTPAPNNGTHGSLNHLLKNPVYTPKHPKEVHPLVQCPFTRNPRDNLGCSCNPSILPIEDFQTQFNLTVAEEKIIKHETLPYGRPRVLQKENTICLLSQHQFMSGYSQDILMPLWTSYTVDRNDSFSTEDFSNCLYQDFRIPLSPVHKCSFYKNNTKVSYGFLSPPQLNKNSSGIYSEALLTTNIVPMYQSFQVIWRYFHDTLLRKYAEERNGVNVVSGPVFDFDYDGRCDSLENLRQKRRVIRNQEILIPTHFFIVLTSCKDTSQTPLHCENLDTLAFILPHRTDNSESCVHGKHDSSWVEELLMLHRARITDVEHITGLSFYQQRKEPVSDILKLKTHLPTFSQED
Description: ENPP1 activity assay using p-Nitrophenyl-5′-TMP as a substrate. In kind it is biochemical. The essentials:
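Human soluble ENPP1 (20 ng) was preincubated with inhibitor for 30 min at room temperature. TMP-pNP was then added as a 2 mM […] solution and incubated 1 h at RT, with p-nitrophenol formation read by OD. IC50 came from four-parameter fits of % inhibition relative to no-inhibitor and blank controls.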

Data set [2] can be described thus: Liver microsome stability, mouse. Type of data set: in vitro ADME. The method, then:
Liver microsome assay was used to evaluate the metabolic stability of I-VI. The test article at the concentration of […] was incubated with 0.5 mg/mL liver microsome in the presence of NADPH and UDPGA as the co-factors for 0, 15, 30, 45 and 60 minutes. The incubation was carried out at 37° C. with 5% CO2 and saturating humidity. Disappearance of the test article was monitored by LC/MS/MS. the disappearance half-life (t1/2), intrinsic clearance and hepatic extraction ratio were determined.

The target of data set [3] is T2, ENPP-1, MDA-MB-231 cells (Homo sapiens, UniProt P22413).
T2 sequence (P22413 1-925): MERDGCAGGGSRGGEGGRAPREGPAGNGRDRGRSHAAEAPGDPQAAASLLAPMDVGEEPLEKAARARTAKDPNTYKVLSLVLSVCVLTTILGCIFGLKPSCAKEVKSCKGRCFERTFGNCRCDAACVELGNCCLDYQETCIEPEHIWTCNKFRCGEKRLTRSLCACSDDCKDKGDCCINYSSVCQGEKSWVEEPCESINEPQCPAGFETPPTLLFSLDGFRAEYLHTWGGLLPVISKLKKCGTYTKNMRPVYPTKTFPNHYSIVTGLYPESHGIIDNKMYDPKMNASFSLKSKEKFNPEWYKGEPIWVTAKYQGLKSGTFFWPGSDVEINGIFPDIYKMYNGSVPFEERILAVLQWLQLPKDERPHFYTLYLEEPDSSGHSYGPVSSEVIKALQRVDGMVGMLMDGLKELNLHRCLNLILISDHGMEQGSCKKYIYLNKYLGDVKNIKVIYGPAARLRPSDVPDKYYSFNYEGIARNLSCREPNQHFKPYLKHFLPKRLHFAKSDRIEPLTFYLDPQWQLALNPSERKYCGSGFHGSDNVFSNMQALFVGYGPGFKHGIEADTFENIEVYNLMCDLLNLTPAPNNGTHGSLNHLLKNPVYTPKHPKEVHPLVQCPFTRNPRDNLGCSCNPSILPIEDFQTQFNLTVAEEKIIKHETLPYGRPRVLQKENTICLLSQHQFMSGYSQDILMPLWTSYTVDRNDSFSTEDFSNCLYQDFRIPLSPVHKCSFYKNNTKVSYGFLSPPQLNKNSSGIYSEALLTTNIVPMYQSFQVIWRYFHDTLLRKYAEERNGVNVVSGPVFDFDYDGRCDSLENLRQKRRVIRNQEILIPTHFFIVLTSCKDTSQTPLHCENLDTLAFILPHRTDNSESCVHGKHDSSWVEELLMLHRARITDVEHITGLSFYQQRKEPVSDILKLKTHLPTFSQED
Description: cell-based. The note with it: for inhibition at 20 µM: MDA-MB-231, read-out: % Inhibition (at 20 μM).

The target in data set [4] is T1, human soluble ENPP1. Briefly: ENPP1 activity assay using p-Nitrophenyl-5′-AMP as a substrate. In kind it is biochemical. The essentials:
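Human soluble ENPP1 (35 ng) preincubated with inhibitor 30 min at RT, then p-nitrophenyl-5′-AMP added (3 mM solution, 2× final) and incubated 1 h at RT. p-Nitrophenolate release read at OD 405 nm; % inhibition vs no-inhibitor and blank controls, IC50 from four-parameter fit.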

Data set [5] addresses T3, ENPP-1, HEK293 cells (Homo sapiens, UniProt P22413).
T3 construct: ENPP-1 were mainly expressed on the surface of cell membrane; endogenous in cells; host or cells: HEK293
T3 sequence (P22413 1-925): T2 sequence (P22413 1-925)
Description: Cellular enzymatic assay of ENPP-1 inhibitors using TMP-pNP as substrate, HEK 293 cells. In kind it is cell-based. The method, then: (§1) ENPP-1 were mainly expressed on the surface of cell membrane where it hydrolytes 2′3′-cGAMP to generate 5′-GMP and 5′-AMP. ENPP-1 also has the ability to hydrolyzes artificial phosphoric acid ester TMP-pNP to nucleotide-5′-monophosphate and p-nitrophcnol there, which is a chromogenic product.
(§2) 8 point of different concentrations of each inhibitor were prepared with the final assay concentrations starting at 20 μM. 3× series dilution by DMEM medium without FBS was applied. Prior to adding inhibitors, 75000 cells per well were incubated at 37° C., 5% CO2 in DMEM for 24 hours. After removing the supernatant medium, 50 μL inhibitor solution was added into each well with cultured cells and incubate at 37° C., 5% CO2 for 60 minutes.
(§3) The IC50 values for percent inhibition versus compound concentration are determined by fitting the inhibition curves using a four-parameter variable slope model in GraphPad Prism® 8.

Data set [6] deals with T4, ENPP-1, Saos-2 cells (Homo sapiens, UniProt P22413).
T4 construct: ENPP-1 were mainly expressed on the surface of cell membrane; endogenous in cells; host or cells: Saos-2
T4 sequence (P22413 1-925): T2 sequence (P22413 1-925)
Briefly: Cellular enzymatic assay of ENPP-1 inhibitors using TMP-pNP as substrate, Saos-2 cells. In kind it is cell-based. Particulars: SAOS-2, read-out: % Inhibition (@20 μM). The method, then: as §1, §2, §3

A short description of data set [7]: Pharmacokinetics in mice. In kind it is in vivo. The note with it: mouse, plasma, male CD-1 mice; for AUC / clearance / half-life / Vd: 1 mg/kg, iv; for Vd: read-out: Vdss. The method, then:
A dosing solution of test sample was prepared at 1.0 mg/mL in 5% DMSO/40% PEG400/55% water and administered to male CD-1 mice (4-6 weeks old, 20-30 grams, 3 animals each group) via intravenous (IV) bolus at 1 mg/kg and by oral gavage (PO) at 5 mg/kg. Blood samples (˜0.03 mL each time point) were collected via the jugular vein into tubes containing sodium heparin as the anticoagulant at 0.033, 0.083, 0.25, 0.5, 1, 2, 4, 8 and 24 hours post dose for IV administration and 0.083, 0.25, 0.5, 1, 2, 4, 8 and 24 hours post dose for PO administration. The blood samples were then centrifuged for 5 minutes in a centrifuge refrigerated at 4° C. The resultant plasma samples were analyzed using LC/MS/MS to determine concentrations of test sample. Non-compartmental model with WinNonlin (Phoenix™, version 8.0) software was used to calculate pharmacokinetic (PK) parameters.

Setting [8] is: HEK293, read-out: Inhibition (at 20 μM).
Setting [9] is: HEK293, HEK 293 cells, at 20 μM, read-out: Inhibition (at 20 μM).

Each structure is given as a SMILES string. Read-outs that look alike come from different tables or passages of the source.

In the case of `COc1cc2ncc3[nH]c(=O)n(Cc4ccc(S(N)(=O)=O)cc4)c3c2cc1OC` [Compound 1, 4-((7,8-dimethoxy-2-oxo-2,3-dihydro-1H-imidazo[4,5-c]quinolin-1-yl)methyl)benzenesulfonamide], the concentration for half-maximal inhibition (IC50) came to 1.7 nM in data set [1], 2900 nM in data set [3] and 5.9 nM in data set [4]. Also, the “Hepatic extraction ratio Re” value in data set [2] (Mouse liver microsome) amounted to 0. In addition, the “Half-life t1/2 (min)” value in data set [2] (Mouse liver microsome 0.5 mg/mL, NADPH and UDPGA, 37° C.) is reported as “∞”. Moreover, the inhibition at 20 µM in data set [3] was 50%; in data set [5] (setting [8]) it was 19%; in data set [6], 32%.
Compound `COc1ccc2c(ncc3ncn(Cc4ccc(S(N)(=O)=O)cn4)c32)n1` [Compound 40, 6-((7-methoxy-1H-imidazo[4,5-c][1,8]naphthyridin-1-yl)methyl)pyridine-3-sulfonamide] gave an IC50 in data set [1] of 0.15 nM. In data set [3], 65 nM corresponded to half-maximal inhibition (IC50) and the inhibition at 20 µM turned out to be 85%. In data set [4], this compound came in with an IC50 of 0.23 nM. This compound came in with an IC50 in data set [5] of 130 nM. Also, the inhibition at 20 µM in data set [5] (setting [8]) came to 96%. Further, in data set [7], the AUC was 241 ng·h/mL, the clearance turned out to be 70 mL/min/kg, the half-life is 2.7 h and the Vd came to 7.3 L/kg.
Take `COc1ccc2c(ncc3ncn(Cc4ccc(NS(N)(=O)=O)cc4)c32)n1` [Compound 46, 4-((7-methoxy-1H-imidazo[4,5-c][1,8]naphthyridin-1-yl)methyl)phenyl sulfamide]: the IC50 is 5.2 nM in data set [1], 1600 nM in data set [3] and 2400 nM in data set [5]. For the same compound, the results for the inhibition at 20 µM in data set [3] and in data set [5] (setting [8]) were 75% and 85%, respectively.
Consider `COc1ccc2c(ncc3nc(C(F)(F)F)n(Cc4ccc(S(N)(=O)=O)cc4)c32)n1` [Compound 47, 4-((7-methoxy-2-(trifluoromethyl)-1H-imidazo[4,5-c][1,8]naphthyridin-1-yl)methyl)benzenesulfonamide], for which the values for the IC50 in data set [1], in data set [3] and in data set [5] were 1 nM, 3400 nM and 5000 nM, respectively. Moreover, the inhibition at 20 µM in data set [3] was found to be 72%; in data set [5] (setting [9]) it was 77%.
For `COc1ccc2c(ncc3ncn(Cc4ccc(S(N)(=O)=O)cc4)c32)n1` [Compound 39, 4-((7-methoxy-1H-imidazo[4,5-c][1,8]naphthyridin-1-yl)methyl)benzenesulfonamide], the IC50 in data set [1] came to 0.25 nM; in data set [3], 400 nM; in data set [4], 0.42 nM; in data set [5] it was 730 nM. The values for the inhibition at 20 µM in data set [3] and in data set [5] (setting [9]) were 82% and 94%, respectively. Moreover, the AUC in data set [7] came out at 115 ng·h/mL. The compound also gave a clearance in data set [7] of 115 mL/min/kg. Also, in data set [7], the half-life was 0.33 h. For the same compound, the Vd in data set [7] worked out at 3.1 L/kg.
In the case of `COc1ccc2c(ncc3ncn(Cc4ccc(S(N)(=O)=O)nc4)c32)n1` [Compound 41, 5-((7-methoxy-1H-imidazo[4,5-c][1,8]naphthyridin-1-yl)methyl)pyridine-2-sulfonamide], half-maximal inhibition in data set [1] (IC50) was put at 0.21 nM. Moreover, in data set [3], it took 310 nM to reach half-maximal inhibition (IC50) and the inhibition at 20 µM was 81%. Further, the IC50 in data set [4] came out at 0.9 nM. The same compound returned an IC50 in data set [5] of 660 nM. Moreover, the inhibition at 20 µM in data set [5] (setting [9]) worked out at 96%. Moreover, in data set [7], the AUC came out at 227 ng·h/mL, the clearance was 74 mL/min/kg, the half-life is 1.2 h and the Vd came out at 4 L/kg.
As for `COc1cnc2c(c1)ncc1ncn(Cc3ccc(S(N)(=O)=O)cc3)c12` [Compound 49, 4-((7-methoxy-1H-imidazo[4,5-c][1,5]naphthyridin-1-yl)methyl)benzenesulfonamide], the IC50 in data set [1] was 1.9 nM; in data set [3], 6000 nM; in data set [4] it was 4.8 nM; in data set [5] it was 10000 nM. For the same compound, the inhibition at 20 µM in data set [3] and in data set [5] (setting [9]) was 67% each time.
In turn, `COc1ccc2c(ncc3[nH]c(=O)n(Cc4ccc(S(N)(=O)=O)cc4F)c32)n1` [Compound 102, 3-fluoro-4-((7-methoxy-2-oxo-2,3-dihydro-1H-imidazo[4,5-c][1,8]naphthyridin-1-yl)methyl)benzenesulfonamide] had an IC50 in data set [1] of 0.51 nM. Moreover, in data set [3], the IC50 turned out to be 430 nM and the inhibition at 20 µM amounted to 86%. The same compound yielded an IC50 in data set [4] of 0.74 nM. Also, in data set [7], the AUC came to 657 ng·h/mL, the clearance was 26 mL/min/kg, the half-life was 5.1 h and the Vd is 5.2 L/kg. The bioavailability in data set [7] (oral gavage (PO) at 5 mg/kg vs IV 1 mg/kg) was determined as 8.4%.
